Results reported in paper PMC8126888 (RSC Medicinal Chemistry, 2020).
Read-outs that look alike come from different tables or passages of the source.

Key:
[1] = in vitro; conditions: human, HFF-1 cells
[2] = in vitro; conditions: human, microsomes, pH 7.4, HLM CLint (uL/min/mg), human liver microsomes
[3] = in vitro; conditions: mouse, microsomes, pH 7.4, MLM CLint (uL/min/mg), mouse liver microsomes
[4] = test system: primary peritoneal mouse macrophages (PMM); experiment: cells; conditions: Macrophage, read-out: PMM IC50 (uM)
[5] = in vitro; conditions: human
[6] = test system: Trypanosoma cruzi, Tulahuen CL2, beta-galactosidase strain; experiment: microbe, parasite or virus in culture; conditions: MRC5, read-out: T. cruzi Tulahuen C4 (LacZ) IC50 (uM)
[7] = test system: Leishmania infantum MHOM/MA(BE)/67/ITMAP263 intracellular amastigotes; experiment: microbe, parasite or virus in culture; conditions: Macrophage, in Mus musculus
[8] = in vitro; conditions: PAMPA
[9] = physchem; conditions: HPLC, Ascentis Express RP Amide column, pH 7.4, eLogD, experimental
[10] = in vitro; conditions: human, HepG2 cells
[11] = read-out: L. Inf. pIC50, from L. infantum intracellular amastigote IC50 (converted)
[12] = read-out: L. infantum MHOM/MA(BE)/67/ITMAP263 intracellular amastigotes IC50 (uM), intracellular amastigotes

| SMILES | CC50 [1] | microsomal CLint at 0.5 μM [2] | microsomal CLint at 0.5 μM [3] | IC50 [4] | CC50 at 3 days [5] | IC50 [6] | IC50 [7, 11] | IC50 [7, 12] | Papp [8] | chromatographic logD [9] | CC50 [10] |
| --- | --- | --- | --- | --- | --- | --- | --- | --- | --- | --- | --- |
| COc1ccc(C(=O)NCCO)cc1S(=O)(=O)N(Cc1ccc(F)cc1)Cc1ccc(F)cc1 [DNDI0003371176] | > 64 µM | 131 µL/min/mg | 410 µL/min/mg | > 64 µM | > 64 µM | 44.3 µM | 2.51 µM | 2.53 µM | 5.78 ×10⁻⁶ cm/s | 3.8 | > 64 µM |
| COCCNC(=O)c1ccc(OC)c(S(=O)(=O)N(Cc2ccc(F)cc2)Cc2ccc(F)cc2)c1 [DNDI0003371177] | > 64 µM | 407 µL/min/mg | 1670 µL/min/mg | > 64 µM | > 64 µM | 40.4 µM | 1.02 µM | 1.03 µM | 8.63 ×10⁻⁶ cm/s | 4.1 | 54.1 µM |
| COc1ccc(Cl)cc1S(=O)(=O)N(Cc1ccccc1)C(CO)CO [DNDI0003389933] | > 64 µM | 109 µL/min/mg | 253 µL/min/mg | > 64 µM | > 64 µM | 14.3 µM | 57.5 µM | 57 µM | 13.2 ×10⁻⁶ cm/s | 3.2 | > 64 µM |
| N#Cc1ccc(O)c(S(=O)(=O)N(Cc2ccc(F)cc2)Cc2ccc(F)cc2)c1 [DNDI0003389125] | 7.8 µM | 33 µL/min/mg | 366 µL/min/mg | 45.2 µM | 4 µM | 16.8 µM | 30.9 µM | 30.7 µM | 13.2 ×10⁻⁶ cm/s | 3.5 | > 64 µM |
| COCCN(Cc1ccccc1)S(=O)(=O)c1cc(C(=O)NC2COC2)ccc1OC [DNDI0003392129] |  | 39 µL/min/mg | 114 µL/min/mg | > 64 µM | > 64 µM | > 64 µM | 15.5 µM | 15.5 µM | 4.72 ×10⁻⁶ cm/s | 2.7 |  |
| CNC(=O)c1ccc(OC)c(S(=O)(=O)N(CCOC)Cc2ccccc2)c1 [DNDI0003392128] |  | 23 µL/min/mg | 393 µL/min/mg | > 64 µM | > 64 µM | > 64 µM | 28.2 µM | 28.1 µM | 7.61 ×10⁻⁶ cm/s | 2.7 |  |
| COc1ccc(C(=O)NC2COC2)cc1S(=O)(=O)N(Cc1ccc(F)cc1)Cc1ccc(F)cc1 [DNDI0003371174] | > 64 µM | 178 µL/min/mg | 395 µL/min/mg | > 64 µM | > 64 µM | 38.5 µM | 0.794 µM | 0.79 µM | 4.92 ×10⁻⁶ cm/s |  | > 64 µM |
| COc1ccc(OC)c(S(=O)(=O)N(Cc2ccc(F)cc2)Cc2ccnn2C)c1 [DNDI0003389129] | 26.3 µM | 207 µL/min/mg | 1090 µL/min/mg | 45.2 µM | > 64 µM | 21.1 µM | 5.13 µM | 5.19 µM | 35.6 ×10⁻⁶ cm/s |  | > 64 µM |
| COc1ccc(CN(Cc2ccc(F)cc2)S(=O)(=O)c2cc(OC)ccc2OC)cc1 [DNDI0003388087] | 2.44 µM | 80 µL/min/mg | 19 µL/min/mg | > 64 µM | 5.42 µM | 9.04 µM | 11.2 µM | 11.3 µM |  | 3.5 | 33.2 µM |
| COc1ccc(OC)c(S(=O)(=O)N(Cc2ccc(F)cc2)Cc2cnc(OC)nc2OC)c1 [DNDI0003389321] | > 64 µM | 270 µL/min/mg | 861 µL/min/mg | > 64 µM | > 64 µM | 27.8 µM | 53.7 µM | 53.8 µM | 15.2 ×10⁻⁶ cm/s |  | > 64 µM |
| O=[N+]([O-])c1ccc(Cl)cc1S(=O)(=O)N(Cc1ccccc1)Cc1ccc(F)cc1 [DNDI0003389123] | > 64 µM |  |  | > 64 µM | > 64 µM | 26.4 µM | > 64 µM | > 64 µM |  | 5.1 | > 64 µM |
| COc1ccc(Cl)cc1S(=O)(=O)N(Cc1ccccc1)C(CO)c1ccc(F)cc1 (stereo not drawn) [DNDI0003388149] | 1.25 µM | 18 µL/min/mg | 38 µL/min/mg | > 64 µM | 21.6 µM | 15.8 µM | 1.7 µM | 1.69 µM | 3.4 ×10⁻⁶ cm/s |  | 15.7 µM |
